Columns and labels:
[1] = system: photothrombosis-induced stroke; assay: Photothrombotic induced model of stroke, lesion volume by TTC staining; format: in vivo, mouse
[2] = system: cultured astrocytes; assay: Ca2+ measurements in dye-loaded (Cal520) cultured astrocytes; format: cell-based, mouse
Protocol: FIG. 1: AST-004 increases intracellular Ca^2+ in cultured astrocytes. A) Image of resting Ca^2+ levels in dye-loaded (Cal520) astrocytes. B) Spatio-temporal plot of Ca^2+ fluorescence for the vertical line in panel A. AST-004 was added at 2 min. Note the oscillatory Ca^2+ responses for over 6 minutes. C) Plot of integrated Ca^2+ fluorescence intensities (DF/F0) at the indicated A3R agonist concentrations. Values are mean+/−SEM (data pooled from 3 experiments at each concentration). Images were acquired on the Nikon Sweptfield confocal microscope.
The low level stimulation of Ca2+ release persisted throughout the recording (FIG. 1A,B). It was not blocked by pertussis toxin treatment, consistent with Gq-coupling. The integrated Ca^2+ response was also dose-dependent (FIG. 1C) and present in astrocytes cultured from mouse, rat, pig and human brain tissue.
Protocol was modified from McCarthy et al., 1980 (4). Briefly, mice were anesthetized with isoflurane then cervically dislocated. Brains were quickly removed and chopped in trypsin, and allowed to incubate at 37° C. for 30 mins. DMEM/F-12 Media with 10% FCS and primocin was added and brains were triturated to homogenization and filtered through […] mesh, and seeded into culture flasks. The next day, homogenates were transferred to a new flask, and previous flasks had new media added. Cells were grown for 3-4 weeks, with DMEM/F-12 media changes every 3-4 days until cells were 70% confluent.
Ca^2+ activity was imaged as previously described (5). In brief, astrocytes were seeded on glass cover slips 3 and 4 nights before each experiment. Culture dishes were incubated with a fluorescent Ca^2+ sensitive dye (10 μM, Cal520, cell permeant, Abcam) 30 min prior to the experiment. Images were acquired with a confocal laser-scanning microscope at the rate of 1.5 images/s. Data were obtained in recording buffer (120 mM NaCl, 4.5 mM KCl, 1 mm CaCl2), 2 mM MgCl2, 10 mM HEPES, pH 7.4) at room temperature. Images were analyzed with Image J and NIS Elements.

[3] = system: astrocytes (C8-D1A); assay: Oxygen consumption rate (OCR), Seahorse; format: cell-based
Protocol: FIG. 2: Oxygen Consumption Rate (OCR) is increased by purinergic agonist AST-004. Cultured astrocytes were plated on a standard Seahorse dish (24 well). After establishing basal OCR, purinergic agonist AST-004 or control (antagonist) was added at first arrow. […] The final addition of mitochondrial inhibitors uncovered non-mitochondrial OCR sources.
We previously reported that any agonist stimulating IP3-mediated Ca^2+ increases in astrocytes increased ATP production in astrocytes (1). […] Minimal change was observed under control injections. […] Addition of rotenone and antimycin uncovered non-mitochondrial sources of oxygen consumption, which was subtracted off from all measurements prior to calculations.
OCR was measured to calculate mitochondrial respiration and performed with a Seahorse XF96 extracellular flux analyzer. A 96-well system measures OCR from a monolayer of cultured intact cells, at intervals of ˜5 minutes. Astrocytes were plated on Seahorse microplates at least 2 days prior to OCR measurements. […] Injection of rotenone and antimycin, inhibitors of complex I and III respectively, uncover non-mitochondrial oxygen consumption.

[4] = system: astrocytes of transgenic mice expressing the Luciferase-reporter gene (GFAP promoter); assay: In vivo bioluminescent imaging of ATP in astrocytes after blunt TBI; set-up: species or system mouse; settings: IP injection, two to 4 days after TBI, vs vehicle
Protocol: FIG. 5: In Vivo Bioluminescent Imaging indicates AST-004 increases ATP. A) Transgenic mice expressing the Luciferase-reporter gene in astrocytes (GFAP promoter) were subjected to blunt TBI (Closed Cortical Impact). Two to 4 days after the initial trauma, mice were IP injected with a synthetic D-luciferin analogue (Cytluc1, 100 ul). Bioluminescent signals were recorded with an IVIS Spectrum Imager, 5 min after Cycluc1 injection (green arrow). Mice were then IP injected with either vehicle or AST-004 at […] (blue arrow), the photon flux immediately measured and then compared to the photon flux at 20 minutes (red arrow).
Transgenic mice expressing the Luciferase-reporter gene in astrocytes (GFAP promoter, Dual-Glo mice, Jackson laboratories) were subjected to blunt TBI (Closed Cortical Impact). Two to 4 days after the initial trauma, mice were IP injected with a synthetic D-luciferin analogue (Cycluc 1) and bioluminescent signals recorded on an IVIS Spectrum Imager (FIG. 5A).

[5] = system: astrocytes; assay: Determination of ATP levels in astrocytes (luciferin-luciferase kit), control or GLUD1 shRNA; format: cell-based
Protocol: FIG. 7: GLUD1 Knockdown (KD) in astrocytes blocks P2Y1R and A3R-stimulated increases in ATP. A, B) Cells were treated with P2Y1R agonist MRS2365 for 20 mins in either normal glucose medium (A) or a glucose-free, galactose (B) supplemented media. Galactose forces cells to use oxidative phosphorylation for energy metabolism. […] Intracellular ATP levels were measured with a luciferin-luciferase kit.
P2Y1R and A3R agonists increased mitochondrial ATP production in astrocytes in a manner that was dependent on GLUD1 expression. One possible hypothesis is that glutamate catabolism into α-KG is mediated by GLUD1, which is enhanced by Ca^2+ dependent stimulation of the ICDH and α-KGDH in the TCA cycle. To test this hypothesis, GLUD1 expression levels were reduced in astrocyte cultures by incubating cells with specific shRNA. […] We repeated these experiments in the presence of galactose, a carbon source that forces cells to generate ATP though oxidative phosphorylation, since glycolysis of galactose is ATP neutral.
Cells were transduced with shRNA lentivirus constructs obtained from Santa Cruz (glud1 #145446-V, for Scrambled #108080). Cells were then seeded at single cell/well densities in a 96-well dish and selected for with puromycin. Clones were grown and tested for knockdown by western blot.
Astrocytes were plated at a density of 3000-5000 cells/well in a white, opaque-bottom 96-well dish (Corning). If cells were tested in galactose medium, they were seeded in galactose medium, and left for a minimum of 16 hours before subjected to treatment. Galactose medium was made with glucose-, pyruvate-, phenol-, and glutamine-free DMEM (Gibco) which was then supplemented with 0.9 mg/ml galactose (Sigma), pyruvate (Quality biological, Inc), and 10% dialyzed FBS (Gibco). Treatments were performed for 20 min unless otherwise stated and concentrations of drugs described elsewhere. Drugs used: MRS2365, MRS2500, AST-004, 3-Propyl-6-ethyl-5-[(ethylthio)carbonyl]-2 phenyl-4-propyl-3-pyridine carboxylate (MRS1523) (Tocris Bioscience), sodium dichloroacetate (DCA) (Sigma Aldrich), Oligomycin (Sigma Aldrich), 1-(2-(2-tert-Butylphenoxy)pyridin-3-yl)-3-(4-(trifluoromethoxy)phenyl)urea (BPTU) (Millipore), and Ruthenium 360 (Cal Biochem). Next, media was removed from cells, and 100 μl fresh media immediately added. Then, 95 μl of mixed luminescence substrate from the ATPlite 1-Step kit were added (Perkin-Elmer). Plates were wrapped in aluminum foil and shaken for 3 min on a plate rotator before reading on a luminometer. Readings were normalized to protein as determined by Coomassie Plus Bradford assay (Thermo Fisher). All statistics were analyzed using GraphPad Prism software.

[6] = system: cocaine self-administering mice; assay: Cocaine self-administration; format: in vivo, mouse; settings: osmotic minipump, 100 μL at 2.78 mM
Protocol: Data that are normalized to each mouse's individual cocaine intake at baseline. Mice were trained to self-administer cocaine (0.5 mg/kg/infusion) on a fixed ratio 3 schedule in 2-hr daily sessions. After their intake stabilized (baseline) mice were implanted with osmotic minipumps on day 0 either containing saline (filled circles) or the drug AST-004 (open circles), n=5 mice in each group. Mice were given a day off (day 7), then returned to self-administration in daily sessions. Note the number of infusions goes down in the AST-004 treated mice, while saline treated mice increased infusions.
We used procedures adapted from our recently published work that describes i.v. cocaine self-administration in fully fed mice (6, 7). Male C57BL/6J mice (6 to 7-week-old) purchased from Jackson labs and were kept on a 12/12-hour reverse light-dark cycle (lights off at 0900 h) with ad libitum access to food and water. Cocaine hydrochloride (generously provided by the NIDA drug supply program, Bethesda, MD) was dissolved in sterile physiological saline (NaCl 0.9%). Cocaine was prepared at a concentration that delivers 0.5 mg/kg/12 μL per infusion, based on a typical weight of a young adult mouse (28 g). Mice were implanted with an indwelling catheter in the right jugular vein. […]

[7] = system: traumatic brain injury (TBI); assay: Traumatic brain injury (TBI), GFAP expression by Western blot; settings: for TBI induced increases in GFAP expression: treatment 30 min post-TBI, ipsilateral brain homogenates and plasma at day 7, vs TBI untreated
Protocol: Mice underwent sham or TBI (on Ipsilateral side of brain) and received treatments as labeled 30 min post-TBI. Plasma was obtained from mice at 7 days post-injury, then sacrificed to obtain brain homogenates from the ipsilateral and contralateral hemispheres (middle third). Western blot analysis were normalized to actin. (A and C) Representative blots are shown for Ipsilateral brain homogenates and the plasma at day 7. (B and D) Data were pooled from 3 distinct experiments (N=number of mice per treatment) and plotted as bar histograms, shown as mean of control+/−SEM. *p<0.05 and ** p<0.01 from TBI untreated (dark gray bar).

[8] = 20 min treatment, normal glucose medium

Row | Compound | reduction of stroke infarction volume by AST-004 after antagonist pretreatment ([1]; pretreatment with the A3R antagonist) | integrated Ca2+ response ([2]; astrocytes cultured from mouse, rat, pig and human brain tissue) | intracellular Ca2+ ([2]; cultured astrocytes, Cal520 dye) | stimulation of Ca2+ release under pertussis toxin treatment ([2]; pertussis toxin treatment, consistent with Gq-coupling) | ATP production (OCR revealed by oligomycin) ([3]; 400 nM) | basal respiration (OCR) ([3]; after addition to the bath at 15 minutes, vs control injections) | maximal respiration (OCR after FCCP) ([3]; uncoupling by FCCP) | stroke infarction volume ([1]; 0.2 mg/kg, intraperitoneally within 30 min post stroke, 24 hours post-stroke, vs vehicle) | photon flux levels (ATP-production in astrocytes) [4] | ATP levels, control cells (scrambled shRNA) [5, 8] | cocaine self-administration ([6]; FR3, 2-hr daily sessions, vs saline) | cocaine intake normalized to baseline ([6]; over 2 weeks, n=5) | neuroprotection after traumatic brain injury (TBI) ([7]; mice) | TBI induced increases in GFAP expression [7] | ATP levels, control cells (scrambled shRNA), galactose medium ([5]; 20 min treatment, glucose-free, galactose supplemented media) | ATP levels, astrocytes with reduced levels of GLUD1 (GLUD1 shRNA) [5, 8] | ATP levels, astrocytes with reduced GLUD1 levels, galactose medium ([5]; in the presence of galactose)
1 | CCCOC(=O)c1c(-c2ccccc2)nc(CC)c(C(=O)SCC)c1CCC [MRS1523, 3-Propyl-6-ethyl-5-[(ethylthio)carbonyl]-2 phenyl-4-propyl-3-pyridine carboxylate, reference compound] | blocked | – | – | – | – | – | – | – | – | – | – | – | – | – | – | – | –
2 | CSc1nc(N)c2ncn([C@H]3[C@H](O)[C@H](O)[C@]4(CO)C[C@H]34)c2n1 [AST-004] | – | dose-dependent | stimulates intracellular Ca2+ | not blocked | significantly greater | increased | significantly higher | significantly reduced | significantly higher | increased ATP levels in a GLUD1-dependent manner | significantly reduces | approximately 60 % of baseline | neuroprotective | reduced | – | – | –
3 | CSc1nc(N)c2ncn([C@H]3[C@H](O)[C@H](O)[C@]4(COP(=O)(O)OP(=O)(O)O)C[C@H]34)c2n1 [MRS2365] | – | – | – | – | – | – | – | – | – | significantly increased | – | – | – | reduced | significantly increased | not responsive | similarly non-responsive

Reference: patent publication US11839615B2, “Compounds and methods for treating addiction and related disorders” (Astrocyte Pharmaceuticals, Inc., priority 2018, dated 2023)
